Columns and labels:
Liver carboxylesterase 1 [1] = target: T1, Liver carboxylesterase 1 (Homo sapiens, UniProt P23141); assay: Inhibition of human recombinant carboxylesterase 1 after 15 mins
T1 sequence (P23141 whole entry): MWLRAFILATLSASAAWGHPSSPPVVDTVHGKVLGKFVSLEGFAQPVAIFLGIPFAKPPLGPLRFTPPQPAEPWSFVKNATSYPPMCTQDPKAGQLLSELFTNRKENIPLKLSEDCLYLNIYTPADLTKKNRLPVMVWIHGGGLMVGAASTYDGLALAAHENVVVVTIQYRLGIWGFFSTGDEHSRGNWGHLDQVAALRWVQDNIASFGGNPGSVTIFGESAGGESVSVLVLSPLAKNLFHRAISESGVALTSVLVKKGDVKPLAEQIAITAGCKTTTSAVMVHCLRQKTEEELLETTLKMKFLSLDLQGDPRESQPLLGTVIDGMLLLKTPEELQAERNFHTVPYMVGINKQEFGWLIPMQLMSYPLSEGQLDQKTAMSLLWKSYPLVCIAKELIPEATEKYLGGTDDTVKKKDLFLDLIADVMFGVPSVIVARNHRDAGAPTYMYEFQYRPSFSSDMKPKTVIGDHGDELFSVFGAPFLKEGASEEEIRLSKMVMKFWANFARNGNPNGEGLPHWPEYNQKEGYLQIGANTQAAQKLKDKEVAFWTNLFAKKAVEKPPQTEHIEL

[2] = Inhibition of rabbit liver carboxylesterase after 5 mins; parameters: species or system Oryctolagus cuniculus
[3] = Inhibition of rabbit liver carboxylesterase after 15 mins; parameters: species or system Oryctolagus cuniculus
[4] = target: T2, Fatty-acid amide hydrolase 1 (Homo sapiens, UniProt O00519); assay: Inhibition of human recombinant FAAH after 5 mins
T2 sequence (O00519 whole entry): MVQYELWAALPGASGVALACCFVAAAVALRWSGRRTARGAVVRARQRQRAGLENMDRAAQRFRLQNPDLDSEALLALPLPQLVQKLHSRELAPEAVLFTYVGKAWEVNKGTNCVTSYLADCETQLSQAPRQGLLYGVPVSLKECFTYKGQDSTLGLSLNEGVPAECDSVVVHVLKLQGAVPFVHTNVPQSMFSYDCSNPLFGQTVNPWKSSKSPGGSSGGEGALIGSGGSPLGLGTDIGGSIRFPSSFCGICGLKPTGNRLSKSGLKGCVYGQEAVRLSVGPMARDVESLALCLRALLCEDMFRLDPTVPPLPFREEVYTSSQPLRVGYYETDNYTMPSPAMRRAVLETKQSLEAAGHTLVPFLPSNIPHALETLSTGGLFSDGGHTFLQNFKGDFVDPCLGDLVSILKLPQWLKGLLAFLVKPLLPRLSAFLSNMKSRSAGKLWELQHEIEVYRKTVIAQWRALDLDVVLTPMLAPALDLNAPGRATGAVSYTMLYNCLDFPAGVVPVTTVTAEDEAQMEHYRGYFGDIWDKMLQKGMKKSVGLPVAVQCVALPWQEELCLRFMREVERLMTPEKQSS

[5] = target: T2, Fatty-acid amide hydrolase 1; assay: Inhibition of human recombinant FAAH after 15 mins
Liver carboxylesterase [6] = target: T3, Liver carboxylesterase (Sus scrofa, UniProt Q29550); assay: Inhibition of pig liver carboxylesterase after 5 mins
T3 sequence (Q29550 whole entry): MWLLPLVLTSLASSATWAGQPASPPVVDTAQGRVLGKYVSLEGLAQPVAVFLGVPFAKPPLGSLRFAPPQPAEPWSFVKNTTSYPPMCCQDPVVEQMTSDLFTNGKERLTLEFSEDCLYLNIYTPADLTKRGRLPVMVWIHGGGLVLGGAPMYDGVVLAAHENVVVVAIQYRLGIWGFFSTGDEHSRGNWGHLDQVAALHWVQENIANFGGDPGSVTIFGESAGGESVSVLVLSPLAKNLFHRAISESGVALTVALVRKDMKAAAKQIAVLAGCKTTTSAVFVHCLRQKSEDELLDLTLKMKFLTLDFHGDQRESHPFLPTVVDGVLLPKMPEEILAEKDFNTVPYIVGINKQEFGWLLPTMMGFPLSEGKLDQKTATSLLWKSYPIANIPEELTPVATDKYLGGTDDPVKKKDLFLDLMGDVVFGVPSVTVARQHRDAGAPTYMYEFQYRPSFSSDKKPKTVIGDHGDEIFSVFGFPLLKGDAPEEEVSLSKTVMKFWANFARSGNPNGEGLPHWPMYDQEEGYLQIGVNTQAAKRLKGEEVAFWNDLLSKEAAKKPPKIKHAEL

Liver carboxylesterase [7] = target: T3, Liver carboxylesterase; assay: Inhibition of pig liver carboxylesterase after 15 mins
Liver carboxylesterase 1 [8] = target: T1, Liver carboxylesterase 1; assay: Inhibition of human recombinant carboxylesterase 1 after 5 mins
[9] = target: T4, Juvenile hormone esterase (Manduca sexta, UniProt Q9GPG0); assay: Inhibition of Manduca sexta juvenile hormone esterase
T4 sequence (Q9GPG0 whole entry): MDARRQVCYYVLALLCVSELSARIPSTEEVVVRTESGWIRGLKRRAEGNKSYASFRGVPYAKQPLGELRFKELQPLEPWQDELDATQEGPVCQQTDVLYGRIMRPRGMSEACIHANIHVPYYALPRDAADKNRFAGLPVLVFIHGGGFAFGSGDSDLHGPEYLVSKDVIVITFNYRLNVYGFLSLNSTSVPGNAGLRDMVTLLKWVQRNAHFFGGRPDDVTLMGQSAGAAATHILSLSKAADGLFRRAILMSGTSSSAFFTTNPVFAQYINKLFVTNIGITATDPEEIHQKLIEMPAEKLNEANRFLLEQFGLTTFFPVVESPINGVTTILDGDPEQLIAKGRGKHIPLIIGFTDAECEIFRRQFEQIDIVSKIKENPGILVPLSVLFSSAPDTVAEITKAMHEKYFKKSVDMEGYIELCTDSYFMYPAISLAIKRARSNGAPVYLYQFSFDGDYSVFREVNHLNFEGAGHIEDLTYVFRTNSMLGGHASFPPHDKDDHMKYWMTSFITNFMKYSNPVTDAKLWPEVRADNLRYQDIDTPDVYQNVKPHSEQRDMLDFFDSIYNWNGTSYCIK

[10] = Inhibition of Manduca sexta juvenile hormone esterase […] mutant

IC50 (Liver carboxylesterase 1 [1]) [nM]	IC50 [2] [nM]	IC50 [3] [nM]	IC50 [4] [nM]	IC50 [5] [nM]	IC50 (Liver carboxylesterase [6]) [nM]	IC50 (Liver carboxylesterase [7]) [nM]	IC50 (Liver carboxylesterase 1 [8]) [nM]	SMILES	IC50 [9] [nM]	IC50 [10] [nM]
5.5	16	5	6500	13900	200	23	30	CCCCCCCC[S+]([O-])CC(=O)C(F)(F)F (stereo unspecified)	–	–
5.4	55	35	14800	22500	830	460	18	CCCCCCCCS(=O)(=O)CC(=O)C(F)(F)F	–	–
–	–	–	> 40000	> 40000	470	100	–	CCCCCCS(=O)(=O)CC(=O)C(F)(F)F	–	–
–	–	–	2200	3000	63	28	–	CCCCCCCCCCS(=O)(=O)CC(=O)C(F)(F)F	–	–
–	–	–	760	1350	5.5	3.2	–	CCCCCCCCCC[S+]([O-])CC(=O)C(F)(F)F (stereo unspecified)	–	–
30	42	14	1250	1800	25	9.3	65	CCCCCCCCCCC(=O)C(F)(F)F	530	1600
–	–	–	250	280	37	46	–	CCCCCCCCCCCCS(=O)(=O)CC(=O)C(F)(F)F	–	–

The next lines start with the compound.

SMILES	IC50 (Liver carboxylesterase 1 [1]) [nM]	IC50 [2] [nM]	IC50 [3] [nM]	IC50 [4] [nM]	IC50 [5] [nM]	IC50 (Liver carboxylesterase [6]) [nM]	IC50 (Liver carboxylesterase [7]) [nM]	IC50 (Liver carboxylesterase 1 [8]) [nM]	IC50 [9] [nM]	IC50 [10] [nM]
O=C(C(=O)c1ccccc1)c1ccccc1 [BENZIL]	–	19	29	> 40000	> 40000	370	830	–	–	–
CCCCCCCCCCCC[S+]([O-])CC(=O)C(F)(F)F (stereo unspecified)	–	–	–	440	600	12	8.6	–	–	–
CCCCCCCCCCCCSCC(=O)C(F)(F)F	–	–	–	84	89	12	5.3	–	–	–
CCCCCCCCSCC(=O)C(F)(F)F	13	6.7	1.9	230	300	5.6	2.4	24	22	330
CCCCCC[S+]([O-])CC(=O)C(F)(F)F (stereo unspecified)	–	–	–	> 40000	> 40000	280	33	–	–	–
CCCC[S+]([O-])CC(=O)C(F)(F)F (stereo unspecified)	–	–	–	> 40000	> 40000	970	270	–	–	–
CCCCCCCCCCSCC(=O)C(F)(F)F	–	–	–	120	170	2.2	1.3	–	–	–
CCCCCCSCC(=O)C(F)(F)F	–	–	–	1950	2500	7.5	1.8	–	–	–
CCCCSCC(=O)C(F)(F)F	–	–	–	> 40000	> 40000	20	4.5	–	–	–
